Reference: ChEMBL document CHEMBL1201862, “PubChem BioAssay data set” (2004)
Active and inactive are the calls of the source.

Columns and labels:
Cytochrome P450 3A4 = Cytochrome P450 3A4 (Homo sapiens, UniProt P08684);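 also: CYP3A4 tested as one member of a cytochrome P450 panel screen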
[1] = HIV-1 AD8 envelope cell-cell fusion blockers – cherry-pick, dose response (AID 652062); assay type: functional, cell-based;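 also: luciferase signal from cell-cell fusion driven by HIV-1 clade B AD8 Env; potency is for inhibitors of fusion seen as a drop in luminescence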
HT-1080 = experiment: HT1080 cell viability loss – fluorescence readout (AID 620); assay type: functional, cell-based; settings: Homo sapiens
A-375 [2] = experiment: MITF: Counter assay: A375 proliferation Measured in Cell-Based System Using Plate Reader - 2084-03_Inhibitor_Dose_DryPowder_Activity. [Related pubchem assays (depositor defined):AID488944]; assay type: functional; settings: Homo sapiens
A-375 [3] = experiment: proliferation inhibition in MITF-low A375 cells – cell-based, cherry-pick samples, set 2, counter-screen for MITF modulator project, dose response (AID 540335); assay type: functional; settings: Homo sapiens
[4] = off-target signal loss in HeLa-CEM21 co-culture – HeLa F-luc CTL cells, cherry-picked, counter-screen for HIV-1 Env fusion inhibitor project, dose response (AID 652040); assay type: functional, cell-based;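 also: potency for signal decrease marking cytotoxic or nonspecific inhibition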
[5] = target: T1, Microphthalmia-associated transcription factor (Homo sapiens, UniProt O75030); experiment: reducers of TRPM1 reporter luminescence, concentration series – cell-based, SK-MEL-5, cherry-picked, set 3, MITF inhibitor project, dose response (AID 493073); assay type: functional;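 also: SK-MEL-5 melanoma cells with luciferase driven by the MITF target TRPM1 promoter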
T1 sequence (O75030 whole entry): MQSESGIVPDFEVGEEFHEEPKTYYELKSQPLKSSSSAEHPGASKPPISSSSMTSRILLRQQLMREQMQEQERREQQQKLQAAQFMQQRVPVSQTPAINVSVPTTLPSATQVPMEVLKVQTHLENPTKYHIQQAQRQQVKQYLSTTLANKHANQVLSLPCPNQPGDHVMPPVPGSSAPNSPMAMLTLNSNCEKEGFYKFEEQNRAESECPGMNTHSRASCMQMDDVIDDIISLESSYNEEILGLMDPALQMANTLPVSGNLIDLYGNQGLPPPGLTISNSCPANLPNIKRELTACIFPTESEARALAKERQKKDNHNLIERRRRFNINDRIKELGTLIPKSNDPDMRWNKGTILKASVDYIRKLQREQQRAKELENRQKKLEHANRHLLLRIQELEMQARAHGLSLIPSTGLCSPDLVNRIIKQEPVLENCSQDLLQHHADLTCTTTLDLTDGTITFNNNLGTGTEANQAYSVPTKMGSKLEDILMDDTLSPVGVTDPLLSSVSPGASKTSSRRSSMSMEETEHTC

[6] = HEK-293T viability loss, compound-treated – cell-based, uHTS hits, cytotoxicity control for B/T-cell NF-kB inhibitor project, dose response (AID 489019); assay type: functional;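 also: IC50 reflects cytotoxicity as loss of cell viability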
[7] = target: T2, Luciferin 4-monooxygenase (Photinus pyralis, UniProt P08659); experiment: Counter Screen for Luciferase-based Assay Positives. [Related pubchem assays: 620, 618, 411 ]
Jurkat = experiment: blockers of NF-kB activation in T cells – Jurkat, luciferase reporter, luminescence, B- and T-cell, dose response (AID 489004); assay type: functional, cell-based; settings: Homo sapiens;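 also: NF-kB luciferase reporter Jurkat cells stimulated with PMA plus ionomycin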
[8] = blockers of HIV-1 envelope-mediated cell-cell fusion – cherry-pick, dose response (AID 652057); assay type: functional, cell-based
[9] = blockers of HIV-1 ZM109 envelope-driven cell-cell fusion – HeLa effector, CEM target cells, luciferase, cherry-pick, dose response (AID 652058); assay type: functional, cell-based;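 also: luciferase signal from HIV-1 Env mediated cell-cell fusion of effector and target cells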
HeLa = experiment: ATP-based viability loss in HeLa cells – cell-based, CellTiter-Glo luminescence, cherry-pick samples, cytotoxicity control for MITF activator project, dose response (AID 540259); assay type: functional; settings: Homo sapiens
[10] = target: T2, Luciferin 4-monooxygenase; experiment: inhibition of purified Photinus pyralis luciferase – biochemical, luminescence, dose response (AID 1891)
[11] = Luminescence Cell-Based Dose Confirmation HTS to Identify Inhibitors of Platelet Dense Granule Release. [Related pubchem assays: 1663 (Primary HTS), 1678 (Summary of Project)]; assay type: functional

T2 sequence (P08659 whole entry): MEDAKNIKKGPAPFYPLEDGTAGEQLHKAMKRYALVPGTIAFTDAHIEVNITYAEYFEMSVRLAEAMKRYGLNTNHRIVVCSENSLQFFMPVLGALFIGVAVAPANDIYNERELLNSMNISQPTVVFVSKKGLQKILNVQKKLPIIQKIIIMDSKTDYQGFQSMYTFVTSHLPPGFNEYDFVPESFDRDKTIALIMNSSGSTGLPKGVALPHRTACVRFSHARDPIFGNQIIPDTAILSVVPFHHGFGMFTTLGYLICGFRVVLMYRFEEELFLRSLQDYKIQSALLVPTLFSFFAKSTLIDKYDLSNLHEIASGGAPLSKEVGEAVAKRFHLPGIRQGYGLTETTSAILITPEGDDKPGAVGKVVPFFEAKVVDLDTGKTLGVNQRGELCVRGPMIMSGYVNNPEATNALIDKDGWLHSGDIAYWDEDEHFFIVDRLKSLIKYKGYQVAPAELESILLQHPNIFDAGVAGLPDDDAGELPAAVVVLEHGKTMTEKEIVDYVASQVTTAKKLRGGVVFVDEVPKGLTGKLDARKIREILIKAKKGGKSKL
Cytochrome P450 3A4, sequence (P08684 whole entry, the tested form may be a part): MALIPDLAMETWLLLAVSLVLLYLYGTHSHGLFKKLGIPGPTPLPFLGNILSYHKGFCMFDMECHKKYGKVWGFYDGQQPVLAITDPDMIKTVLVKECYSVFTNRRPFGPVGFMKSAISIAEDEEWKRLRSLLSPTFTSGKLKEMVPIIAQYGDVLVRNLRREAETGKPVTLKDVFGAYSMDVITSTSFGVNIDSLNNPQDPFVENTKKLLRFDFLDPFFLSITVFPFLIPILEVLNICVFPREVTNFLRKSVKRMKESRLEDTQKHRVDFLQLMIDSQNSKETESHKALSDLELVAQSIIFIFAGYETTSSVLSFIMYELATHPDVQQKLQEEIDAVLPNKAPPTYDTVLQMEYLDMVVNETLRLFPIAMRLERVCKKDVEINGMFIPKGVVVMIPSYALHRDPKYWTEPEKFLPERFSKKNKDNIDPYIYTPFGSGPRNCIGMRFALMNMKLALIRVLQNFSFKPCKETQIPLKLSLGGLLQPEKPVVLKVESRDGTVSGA

O=C(c1cc(C(F)(F)F)cc(C(F)(F)F)c1)N1CCC2(CC1)CN(c1ccccc1)C2
AC50 (Cytochrome P450 3A4): inconclusive

CC(C)(C)c1ccc(C(=O)N2CCCCCC2=O)cc1
AC50 [1]: 4.27 µM (active)
EC50 (HT-1080): > 50 µM (not active)
AC50 (A-375 [2]): > 35 µM (active)
AC50 (A-375 [3]): > 35 µM (active)
AC50 [4]: 1.73 µM (active)
AC50 [5]: 1.12 µM (active)
IC50 [6]: > 80 µM (inactive)
EC50 [7]: 1.5 µM (active)
IC50 (Jurkat): 0.38 µM (active)
AC50 [8]: 2.77 µM (active)
AC50 [9]: 0.611 µM (active)

COc1ccc(C(=O)Nc2cc(OC)nc(OC)n2)cc1
AC50 (HeLa): 178 µM (active)
EC50 [10]: 16.3 µM (active)
EC50 [11]: 8.79 µM (active)
